In US20040024055A1, “Pharmaceutical composition containing the exract of saururus chinensis baill useful as an anticancer agent and a process for the preparation thereof” (priority 2000, published 2004):
≈ marks a conversion by molar mass, not a printed value.

Key:
[1] = test system: DU-145 prostate cancer cell line; experiment: MTT analysis, anticancer activity; type: cell-based, human; conditions: Homo sapiens, DU-145, 48 hr
Description: To be specific, SK-Hep-1 cell, which is liver cancer cell line, was added to 96-well microplate (Falcon, USA) with the concentration of 3×10^5 cells/ml by 100 μl per well. Each extracted and separated substance dissolved in DMSO was added to the well by 100 μl for the final concentration to be from 50 μg/ml to 0.0244 μg/ml, with 200 μl of final volume. Each cell was cultured for 48 hr in a culture medium of 37° C. and 5% CO2. After cultivation, 20 μl of phosphate buffer solution containing 5 mg/ml of MTT (3-[4,5-dimethylthiazol-2-yl]-2,5-diphenyltetrazoliumbromide, Sigma Co.) reagent was added to each well, and then cultured for 4 hr. After taking 100 μl of supernant from each culture medium, 100 μl of 0.04N hydrochloric acid-isopropanol was added. After letting alone overnight, absorbance was measured at 560 nm using automatic Eliza detector (Molecular Divices Corp., USA). Anticancer activity of each extracted and separated substance was calculated from the absorbance value by Equation 1 and was expressed in terms of cell.
Average Existence Rate(%)=(Absorbance of Treated Group)/(Absorbance of Control Group)×100

[2] = test system: HS-746T; experiment: MTT analysis, anticancer activity; type: cell-based, human; conditions: Homo sapiens, Hs746T; MTT, 48 hr
[3] = test system: HeLa; experiment: MTT analysis, anticancer activity; type: cell-based, human; conditions: Homo sapiens, HeLa, 48 hr
[4] = test system: NIH-3T3; experiment: Adhesion of cell to Collagen; type: cell-based, mouse
Description: (§1) After treating HNP-98701 on tissue culture plate coated with the matrices, cancer cell was attached thereupon. To be specific, 50 μl/ml of […], 2 μg/ml of laminin, 2 μg/ml of collagen and 2 μg/ml of gelatin were coated on the surface of 96-well microplate (Corning Co.) per well. After solidifying for 2 hr, HNP-98701 was added to each well and treated for 1 hr. […] After treating the substances for 1 hr, cancer cell was added to each cell, and it was cultured for 3 hr. […] After culturing these cell lines for 3 hr, they were centrifuged. After collecting biomass only, it was washed with distilled water or PBS buffer solution for three times. […] Then, absorbance was measured at 560-405 nm with automatic Eliza detector (Molecular […] Corp., USA). […] Each experiment was performed for three times repeatedly.

[5] = test system: SK-OV-3; experiment: MTT analysis, anticancer activity; type: cell-based, human; conditions: Homo sapiens, SK-OV-3; MTT, 48 hr
[6] = test system: HT-29; experiment: MTT analysis, anticancer activity; type: cell-based, human; conditions: Homo sapiens, HT-29; MTT, 48 hr
[7] = test system: 3T3-L1; experiment: MTT analysis, cytotoxicity against normal cell line; type: cell-based, mouse; conditions: Mus musculus, 3T3-L1; MTT, 48 hr
[8] = test system: T-47D; experiment: MTT analysis, anticancer activity; type: cell-based, human; conditions: Homo sapiens, T47D, 48 hr
[9] = test system: KATO-III; experiment: MTT analysis, anticancer activity; type: cell-based, human; conditions: Homo sapiens, KATO III; MTT, 48 hr; read-out: IC50 KATO-III
[10] = test system: CHO; experiment: MTT analysis, cytotoxicity against normal cell line; type: cell-based, Chinese hamster; conditions: Cricetulus griseus, CHO; MTT, 48 hr
[11] = test system: NIH-3T3; experiment: Adhesion of cell to Matri-Gel; type: cell-based, mouse
Description: as §1

[12] = test system: 293; experiment: MTT analysis, cytotoxicity against normal cell line; type: cell-based, human; conditions: Homo sapiens, HEK293; MTT, 48 hr
[13] = test system: ME-180; experiment: MTT analysis, anticancer activity; type: cell-based, human; conditions: Homo sapiens, ME-180; MTT, 48 hr
[14] = test system: SK-BR-3; experiment: MTT analysis, anticancer activity; type: cell-based, human; conditions: Homo sapiens, SK-BR-3, 48 hr
[15] = test system: SK-MEL-28; experiment: Adhesion of cancer cell to Laminin; type: cell-based, human
Description: as §1

[16] = test system: SK-Hep-1; experiment: Adhesion of cancer cell to Laminin; type: cell-based, human
Description: as §1

[17] = test system: Hep-2; experiment: Adhesion of cancer cell to Laminin; type: cell-based, human
Description: as §1

[18] = test system: BT-549; experiment: MTT analysis, anticancer activity; type: cell-based, human; conditions: Homo sapiens, BT-549; MTT, 48 hr
[19] = test system: HS-578T; experiment: MTT analysis, anticancer activity; type: cell-based, human; conditions: Homo sapiens, Hs-578T; MTT, 48 hr
[20] = test system: A431; experiment: MTT analysis, anticancer activity; type: cell-based, human; conditions: Homo sapiens, A-431, 48 hr
[21] = test system: LoVo; experiment: MTT analysis, anticancer activity; type: cell-based, human; conditions: Homo sapiens, LoVo; MTT, 48 hr
[22] = test system: Hep-2; experiment: MTT analysis, anticancer activity; type: cell-based, human; conditions: Homo sapiens, HEp-2; MTT, 48 hr; read-out: IC50 Hep-2
[23] = test system: BT-20; experiment: MTT analysis, anticancer activity; type: cell-based, human; conditions: Homo sapiens, BT-20, 48 hr
[24] = test system: SK-MEL-28; experiment: Adhesion of cancer cell to Gelatin; type: cell-based, human
Description: as §1

[25] = test system: SK-Hep-1; experiment: Adhesion of cancer cell to Gelatin; type: cell-based, human
Description: as §1

[26] = test system: Hep-2; experiment: Adhesion of cancer cell to Gelatin; type: cell-based, human
Description: as §1

[27] = test system: SK-Hep-1 liver cancer cell line; experiment: MTT analysis, anticancer activity; type: cell-based, human; conditions: Homo sapiens, SK-HEP1, 48 hr
[28] = test system: NIH-3T3; experiment: Adhesion of cell to Gelatin; type: cell-based, mouse
Description: as §1

[29] = test system: NCI-H69; experiment: MTT analysis, anticancer activity; type: cell-based, human; conditions: Homo sapiens, NCI-H69; MTT, 48 hr
[30] = test system: T98G; experiment: MTT analysis, anticancer activity; type: cell-based, human; conditions: Homo sapiens, T98G, 48 hr
[31] = test system: MCF-7; experiment: MTT analysis, anticancer activity; type: cell-based, human; conditions: Homo sapiens, MCF7; MTT, 48 hr; read-out: IC50 MCF-7
[32] = test system: HS683; experiment: MTT analysis, anticancer activity; type: cell-based, human; conditions: Homo sapiens, Hs 683, 48 hr

Structure (SMILES): COc1cccc2c1C(=O)c1c(O)c3c(c(O)c1C2=O)C[C@@](O)(C(=O)CO)C[C@@H]3O[C@H]1C[C@H](N)[C@H](O)[C@H](C)O1 [Adriamycin, adriamycin (doxorubicin)]
- IC50 [1]: > 50 µg/mL
- IC50 [2]: > 50 µg/mL
- IC50 [3]: 0.703 µg/mL (≈ 1.29 µM)
- Adhesion NIH-3T3 (%) ([4]; 0.1 μg/ml): 111.98%
- Adhesion NIH-3T3 (%) ([4]; 1 μg/ml): 109.97%
- Adhesion NIH-3T3 (%) ([4]; 10 μg/ml): 111.13%
- IC50 [5]: > 50 µg/mL
- IC50 [6]: 0.413 µg/mL (≈ 0.759 µM)
- IC50 [7]: 2 µg/mL (≈ 3.68 µM)
- IC50 [8]: 0.255 µg/mL (≈ 0.469 µM)
- IC50 [9]: 0.342 µg/mL (≈ 0.628 µM)
- IC50 [10]: 5.22 µg/mL (≈ 9.61 µM)
- Adhesion NIH-3T3 (%) ([11]; 0.1 μg/ml): 115.00%
- Adhesion NIH-3T3 (%) ([11]; 1 μg/ml): 108.65%
- Adhesion NIH-3T3 (%) ([11]; 10 μg/ml): 104.23%
- IC50 [12]: < 0.008 µg/mL
- IC50 [13]: 0.108 µg/mL (≈ 0.198 µM)
- IC50 [14]: 0.705 µg/mL (≈ 1.3 µM)
- Adhesion SK-MEL-28 (%) ([15]; 0.1 μg/ml): 108.40%
- Adhesion SK-MEL-28 (%) ([15]; 1 μg/ml): 109.66%
- Adhesion SK-MEL-28 (%) ([15]; 10 μg/ml): 113.03%
- Adhesion SK-Hep-1 (%) ([16]; 0.1 μg/ml): 96.18%
- Adhesion SK-Hep-1 (%) ([16]; 1 μg/ml): 96.92%
- Adhesion SK-Hep-1 (%) ([16]; 10 μg/ml): 95.86%
- Adhesion Hep-2 (%) ([17]; 0.1 μg/ml): 106.76%
- Adhesion Hep-2 (%) ([17]; 1 μg/ml): 105.13%
- Adhesion Hep-2 (%) ([17]; 10 μg/ml): 98.75%
- IC50 [18]: 0.438 µg/mL (≈ 0.806 µM)
- IC50 [19]: 0.469 µg/mL (≈ 0.862 µM)
- IC50 [20]: 0.0675 µg/mL (≈ 0.124 µM)
- IC50 [21]: 0.0538 µg/mL (≈ 0.099 µM)
- IC50 [22]: 0.087 µg/mL (≈ 0.16 µM)
- IC50 [23]: 0.131 µg/mL (≈ 0.241 µM)
- Adhesion SK-MEL-28 (%) ([24]; 0.1 μg/ml): 96.39%
- Adhesion SK-MEL-28 (%) ([24]; 1 μg/ml): 97.42%
- Adhesion SK-MEL-28 (%) ([24]; 10 μg/ml): 97.21%
- Adhesion SK-Hep-1 (%) ([25]; 0.1 μg/ml): 85.77%
- Adhesion SK-Hep-1 (%) ([25]; 1 μg/ml): 76.37%
- Adhesion SK-Hep-1 (%) ([25]; 10 μg/ml): 33.29%
- Adhesion Hep-2 (%) ([26]; 0.1 μg/ml): 104.27%
- Adhesion Hep-2 (%) ([26]; 1 μg/ml): 98.27%
- Adhesion Hep-2 (%) ([26]; 10 μg/ml): 97.73%
- IC50 [27]: 0.282 µg/mL (≈ 0.518 µM)
- Adhesion NIH-3T3 (%) ([28]; 0.1 μg/ml): 108.67%
- Adhesion NIH-3T3 (%) ([28]; 1 μg/ml): 108.86%
- Adhesion NIH-3T3 (%) ([28]; 10 μg/ml): 105.81%
- IC50 [29]: 0.168 µg/mL (≈ 0.308 µM)
- IC50 [30]: 1.61 µg/mL (≈ 2.97 µM)
- IC50 [31]: 0.134 µg/mL (≈ 0.247 µM)
- IC50 [32]: 0.205 µg/mL (≈ 0.377 µM)
